From ChEMBL document CHEMBL1139069, “Novel antiproliferative analogs of the Taq DNA polymerase inhibitor catalpol” (2007)

Columns and labels:
Type in all cases: functional
SW1573 [1] = assay: Cell cycle arrest in human SW1573 cells assessed as accumulation at S phase at 5 uM after 24 hrs by flow cytometry
WiDr = assay: Antiproliferative activity against human WiDr cells after 48 hrs by SRB assay
SW1573 [2] = assay: Cell cycle arrest in human SW1573 cells assessed as accumulation at S phase at 10 uM after 24 hrs by flow cytometry
A2780 = assay: Antiproliferative activity against human A2780 cells after 48 hrs by SRB assay; settings: A2780, 48 h
SW1573 [3] = assay: Cell cycle arrest in human SW1573 cells assessed as accumulation at G0/G1 phase at 5 uM after 24 hrs by flow cytometry
SW1573 [4] = assay: Cell cycle arrest in human SW1573 cells assessed as accumulation at G0/G1 phase at 10 uM after 24 hrs by flow cytometry
HBL-100 [5] = assay: Cell cycle arrest in human HBL100 cells assessed as accumulation at S phase at 5 uM after 24 hrs by flow cytometry
SW1573 [6] = assay: Cell cycle arrest in human SW1573 cells assessed as accumulation at G2/M phase at 10 uM after 24 hrs by flow cytometry
HBL-100 [7] = assay: Antiproliferative activity against human HBL100 cells after 48 hrs by SRB assay; settings: HBL-100, 48 h
HBL-100 [8] = assay: Cell cycle arrest in human HBL100 cells assessed as accumulation at G2/M phase at 5 uM after 24 hrs by flow cytometry
HBL-100 [9] = assay: Cell cycle arrest in human HBL100 cells assessed as accumulation at G2/M phase at 10 uM after 24 hrs by flow cytometry
HeLa = assay: Antiproliferative activity against human HeLa cells after 48 hrs by SRB assay
HBL-100 [10] = assay: Cell cycle arrest in human HBL100 cells assessed as accumulation at S phase at 10 uM after 24 hrs by flow cytometry
T47D = assay: Antiproliferative activity against human T47D cells after 48 hrs by SRB assay
HBL-100 [11] = assay: Cell cycle arrest in human HBL100 cells assessed as accumulation at G0/G1 phase at 10 uM after 24 hrs by flow cytometry
HBL-100 [12] = assay: Cell cycle arrest in human HBL100 cells assessed as accumulation at G0/G1 phase at 5 uM after 24 hrs by flow cytometry
SW1573 [13] = assay: Cell cycle arrest in human SW1573 cells assessed as accumulation at G2/M phase at 5 uM after 24 hrs by flow cytometry
SW1573 [14] = assay: Antiproliferative activity against human SW1573 cells after 48 hrs by SRB assay; settings: SW1573, 48 h

Compound | GI50 (A2780) | GI50 (HeLa) | GI50 (T47D) | GI50 (SW1573 [14]) | Activity (SW1573 [1]) | GI50 (WiDr) | Activity (SW1573 [2]) | Activity (SW1573 [3]) | Activity (SW1573 [4]) | Activity (HBL-100 [5]) | Activity (SW1573 [6]) | GI50 (HBL-100 [7]) | Activity (HBL-100 [8]) | Activity (HBL-100 [9]) | Activity (HBL-100 [10]) | Activity (HBL-100 [11]) | Activity (HBL-100 [12]) | Activity (SW1573 [13])
CC(C)(C)[Si](OC[C@H]1O[C@H](O[C@@H]2OC=C[C@H]3[C@H](O)[C@@H]4O[C@]4(CO[Si](c4ccccc4)(c4ccccc4)C(C)(C)C)[C@@H]23)[C@H](O)[C@@H](O)[C@@H]1O)(c1ccccc1)c1ccccc1 | 2.4 µM | 4.4 µM | 4.1 µM | 2.7 µM | 32% | 3.4 µM | 28% | 54% | 61% | 33% | 11% | 2.7 µM | 15% | 13% | 28% | 59% | 52% | 14%
CC(C)(C)[Si](OC[C@H]1O[C@H](O[C@@H]2OC=C[C@H]3[C@H](O[Si](c4ccccc4)(c4ccccc4)C(C)(C)C)[C@@H]4O[C@]4(CO[Si](c4ccccc4)(c4ccccc4)C(C)(C)C)[C@@H]23)[C@H](O)[C@@H](O)[C@@H]1O)(c1ccccc1)c1ccccc1 | 2.4 µM | 2.1 µM | 2.7 µM | 1.8 µM | 29% | 2 µM | 37% | 58% | 59% | 32% | 4% | 2.4 µM | 12% | 11% | 30% | 59% | 56% | 13%
CC(=O)OC[C@H]1O[C@H](O[C@@H]2OC=C[C@H]3[C@H](OC(C)=O)[C@@H]4O[C@]4(COC(C)=O)[C@@H]23)[C@H](OC(C)=O)[C@@H](OC(C)=O)[C@@H]1OC(C)=O | 60 µM | – | > 100 µM | > 100 µM | – | > 100 µM | – | – | – | – | – | – | – | – | – | – | – | –
O=C(OC[C@H]1O[C@H](O[C@@H]2OC=C[C@H]3[C@H](OC(=O)c4ccccc4)[C@@H]4O[C@]4(COC(=O)c4ccccc4)[C@@H]23)[C@H](OC(=O)c2ccccc2)[C@@H](OC(=O)c2ccccc2)[C@@H]1OC(=O)c1ccccc1)c1ccccc1 | > 100 µM | > 100 µM | > 100 µM | > 100 µM | – | > 100 µM | – | – | – | – | – | > 100 µM | – | – | – | – | – | –
CC(C)(C)[Si](C)(C)OC[C@]12O[C@H]1[C@@H](O)[C@@H]1C=CO[C@@H](O[C@H]3O[C@H](CO)[C@@H](O)[C@H](O)[C@H]3O)[C@@H]12 | 36 µM | 77 µM | 87 µM | 88 µM | – | 81 µM | – | – | – | – | – | 52 µM | – | – | – | – | – | –
C[C@]1(O)C[C@@H](O)[C@]2(O)C=CO[C@@H](O[C@H]3O[C@H](CO)[C@@H](O)[C@H](O)[C@H]3O)[C@@H]21 [HARPAGIDE] | > 100 µM | – | > 100 µM | > 100 µM | – | > 100 µM | – | – | – | – | – | – | – | – | – | – | – | –

Further lines, with some results ahead:

GI50 (A2780) | GI50 (HeLa) | GI50 (T47D) | GI50 (SW1573 [14]) | Compound | Activity (SW1573 [1]) | GI50 (WiDr) | Activity (SW1573 [2]) | Activity (SW1573 [3]) | Activity (SW1573 [4]) | Activity (HBL-100 [5]) | Activity (SW1573 [6]) | GI50 (HBL-100 [7]) | Activity (HBL-100 [8]) | Activity (HBL-100 [9]) | Activity (HBL-100 [10]) | Activity (HBL-100 [11]) | Activity (HBL-100 [12]) | Activity (SW1573 [13])
2.6 µM | 3.6 µM | 3.6 µM | 4.8 µM | CC(C)(C)[Si](C)(C)OC[C@H]1O[C@H](O[C@@H]2OC=C[C@H]3[C@H](O)[C@@H]4O[C@]4(CO[Si](C)(C)C(C)(C)C)[C@@H]23)[C@H](O)[C@@H](O)[C@@H]1O | 37% | 2.7 µM | 20% | 49% | 63% | 35% | 17% | 2.8 µM | 11% | 19% | 30% | 51% | 54% | 14%
> 100 µM | – | > 100 µM | > 100 µM | OC[C@H]1O[C@@H](O[C@@H]2OC=C[C@H]3[C@H](O)[C@@H]4O[C@]4(CO)[C@@H]23)[C@H](O)[C@@H](O)[C@@H]1O [CATALPOL] | – | > 100 µM | – | – | – | – | – | – | – | – | – | – | – | –
